Columns and labels:
Format in all cases: functional
Conditions in all cases: Female gonad
Macrotermes subhyalinus [1] = test: Effect on oxygen consumption in Macrotermes subhyalinus ovary mitochondria assessed as inhibition of state 3 respiration assessed oxygen atom per mg protein per min at 250 uM by polarographic analysis
Macrotermes subhyalinus [2] = test: Effect on oxygen consumption in Macrotermes subhyalinus ovary mitochondria assessed as inhibition of state 4 respiration assessed oxygen atom per mg protein per min at 250 uM by polarographic analysis
Macrotermes subhyalinus [3] = test: Effect on oxygen consumption in Macrotermes subhyalinus ovary mitochondria assessed as inhibition of state 4U respiration assessed oxygen atom per mg protein per min at 250 uM in presence of 2,4-dinitrophenol by polarographic analysis
Macrotermes subhyalinus [4] = test: Inhibition of oxidative phosphorylation in Macrotermes subhyalinus ovary mitochondria assessed as respiratory control ratio assessed oxygen atom per mg protein per min at 250 uM
Macrotermes subhyalinus [5] = test: Inhibition of oxidative phosphorylation in Macrotermes subhyalinus ovary mitochondria assessed as ADP/O ratio at 250 uM
Macrotermes subhyalinus [6] = test: Effect on phosphorylation rate in Macrotermes subhyalinus ovary mitochondria assessed as nmoles ATP synthesized per mg protein per min at 250 uM
Macrotermes subhyalinus [7] = test: Effect on oxygen consumption in Macrotermes subhyalinus ovary mitochondria assessed as inhibition of state 3 respiration assessed oxygen atom per mg protein per min at 100 uM by polarographic analysis
Macrotermes subhyalinus [8] = test: Effect on oxygen consumption in Macrotermes subhyalinus ovary mitochondria assessed as inhibition of state 4 respiration assessed oxygen atom per mg protein per min at 100 uM by polarographic analysis
Macrotermes subhyalinus [9] = test: Effect on oxygen consumption in Macrotermes subhyalinus ovary mitochondria assessed as inhibition of state 4U respiration assessed oxygen atom per mg protein per min at 100 uM in presence of 2,4-dinitrophenol by polarographic analysis
Macrotermes subhyalinus [10] = test: Inhibition of oxidative phosphorylation in Macrotermes subhyalinus ovary mitochondria assessed as respiratory control ratio assessed oxygen atom per mg protein per min at 100 uM
Macrotermes subhyalinus [11] = test: Inhibition of oxidative phosphorylation in Macrotermes subhyalinus ovary mitochondria assessed as ADP/O ratio at 100 uM
Macrotermes subhyalinus [12] = test: Effect on phosphorylation rate in Macrotermes subhyalinus ovary mitochondria assessed as nmoles ATP synthesized per mg protein per min at 100 uM

Row | Structure (SMILES) | Activity (Macrotermes subhyalinus [1]) | Activity (Macrotermes subhyalinus [2]) | Activity (Macrotermes subhyalinus [3]) | Ratio (Macrotermes subhyalinus [4]) | Ratio (Macrotermes subhyalinus [5]) | Activity (Macrotermes subhyalinus [6]) | Activity (Macrotermes subhyalinus [7]) | Activity (Macrotermes subhyalinus [8]) | Activity (Macrotermes subhyalinus [9]) | Ratio (Macrotermes subhyalinus [10]) | Ratio (Macrotermes subhyalinus [11]) | Activity (Macrotermes subhyalinus [12])
1 | C=C1C(=O)[C@]23C[C@H]1C[C@@H](O)[C@H]2[C@@]12CO[C@@H](O)[C@@H]1C(C)(C)CC[C@@H]2OC3=O | 94.8 | 41.2 | 61.8 | 2.3 | 1.79 | 170 |  |  |  |  |  | 
2 | C=C1C(=O)[C@]23C[C@H]1CC[C@H]2[C@@]12CO[C@@H](O)[C@@H]1C(C)(C)[C@@H](O)C[C@@H]2OC3=O |  |  |  |  |  |  | 115 | 33.6 | 104 | 3.41 | 1.62 | 186
3 | C=C1C(=O)[C@]23C[C@H]1C[C@H](O)[C@H]2[C@]1(COC(C)=O)[C@H](CCC(C)(C)[C@H]1C=O)OC3=O |  |  |  |  |  |  | 118 | 44.2 | 41.2 | 2.66 | 1.03 | 121
4 | C=C1C(=O)[C@]23[C@H](O)[C@H]1CC[C@H]2[C@@]12CO[C@]3(O)[C@@H](O)[C@@H]1C(C)(C)CC[C@@H]2O |  |  |  |  |  |  | 118 | 32.4 | 106 | 3.63 | 1.33 | 156
